According to patent publication US9938273B2 (Plexxikon Inc., priority 2015, dated 2018):

target: T1, BA/F3-FLT3-ITD + D835Y cells (Homo sapiens, UniProt P36888, D835Y, cells depend on it, form not given); assay: Cell proliferation assay (CellTiter-Glo), engineered BA/F3 cells; type: cell-based, murine; details: BaF3 FLT3 ITD/D835Y cells, 3d-Growth; read-out: BaF3_FLT3 ITD/D835Y 3d-Growth: IC50
T1 sequence (P36888 1-993 D835Y): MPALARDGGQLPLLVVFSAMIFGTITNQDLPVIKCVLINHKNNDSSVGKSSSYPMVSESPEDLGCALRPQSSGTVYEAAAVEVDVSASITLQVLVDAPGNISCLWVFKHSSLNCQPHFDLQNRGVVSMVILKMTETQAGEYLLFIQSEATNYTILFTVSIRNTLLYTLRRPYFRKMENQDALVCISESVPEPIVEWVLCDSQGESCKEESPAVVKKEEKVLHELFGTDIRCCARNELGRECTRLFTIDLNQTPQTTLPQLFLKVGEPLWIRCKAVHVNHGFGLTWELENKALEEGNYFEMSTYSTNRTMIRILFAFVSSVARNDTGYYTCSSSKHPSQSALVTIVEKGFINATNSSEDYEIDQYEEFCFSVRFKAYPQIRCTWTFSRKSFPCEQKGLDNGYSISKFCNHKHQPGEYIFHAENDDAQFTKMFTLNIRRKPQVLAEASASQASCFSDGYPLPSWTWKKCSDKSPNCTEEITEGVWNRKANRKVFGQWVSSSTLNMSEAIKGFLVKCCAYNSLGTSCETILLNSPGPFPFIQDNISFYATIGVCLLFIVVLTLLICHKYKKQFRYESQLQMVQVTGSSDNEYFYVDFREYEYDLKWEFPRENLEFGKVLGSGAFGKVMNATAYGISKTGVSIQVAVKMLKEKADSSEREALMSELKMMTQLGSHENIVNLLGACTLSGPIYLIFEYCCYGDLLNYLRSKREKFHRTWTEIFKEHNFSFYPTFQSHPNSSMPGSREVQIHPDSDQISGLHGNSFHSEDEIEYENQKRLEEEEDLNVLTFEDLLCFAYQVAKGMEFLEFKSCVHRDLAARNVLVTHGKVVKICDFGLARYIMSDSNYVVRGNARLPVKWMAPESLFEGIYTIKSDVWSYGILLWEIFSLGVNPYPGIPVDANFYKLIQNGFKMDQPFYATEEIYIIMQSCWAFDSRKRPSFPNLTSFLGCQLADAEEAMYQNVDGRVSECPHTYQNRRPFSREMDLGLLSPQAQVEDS
Procedure, shortened: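 Three-day growth at 37 °C, 5% CO2 under compound (1 μM top final, 1:3 dilutions, eight points, 0.2% DMSO), read as ATP luminescence by CellTiter-Glo for IC50. Cells: MOLM-14 with FLT3 ITD plus D835Y or F691L, and IL-3-deprived Ba/F3 transfected with FLT3 ITD/D835Y, 1×10^4 per well.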

GI50, 0.0001 to 10 µM:
c1ccc(-c2cc3cc(-c4ccc5[nH]nc(NC6CNC6)c5c4)cnc3[nH]2)cc1 [Compound P-0053, N-(azetidin-3-yl)-5-(2-phenyl-1H-pyrrolo[2,3-b]pyridin-5-yl)-1H-indazol-3-amine]
CN(C(=O)c1cccc(-c2cnc3[nH]c(-c4ccccc4)cc3c2)n1)C1CCNC1 (stereo not shown) [Compound P-0076, N-methyl-6-(2-phenyl-1H-pyrrolo[2,3-b]pyridin-5-yl)-N-pyrrolidin-3-yl-pyridine-2-carboxamide]
CNC1CCCN(C(=O)c2cccc(-c3cnc4[nH]c(-c5ccccc5)cc4c3)n2)C1 (stereo not shown) [Compound P-0080, [3-(methylamino)-1-piperidyl]-[6-(2-phenyl-1H-pyrrolo[2,3-b]pyridin-5-yl)-2-pyridyl]methanone]
CNC1CCN(C(=O)c2cccc(-c3cnc4[nH]c(-c5ccccc5)cc4c3)n2)CC1 [Compound P-0041, [4-(methylamino)-1-piperidyl]-[6-(2-phenyl-1H-pyrrolo[2,3-b]pyridin-5-yl)-2-pyridyl]methanone]
NC1CCN(C(=O)c2c[nH]c3ccc(-c4cnc5[nH]c(-c6ccccc6)cc5c4)cc23)CC1 [Compound P-0042, (4-amino-1-piperidyl)-[5-(2-phenyl-1H-pyrrolo[2,3-b]pyridin-5-yl)-1H-indol-3-yl]methanone]
O=C(c1cccc(-c2cnc3[nH]c(-c4ccccc4)cc3c2)n1)N1CCC(O)C1 (stereo not shown) [Compound P-0068, (3-hydroxypyrrolidin-1-yl)-[6-(2-phenyl-1H-pyrrolo[2,3-b]pyridin-5-yl)-2-pyridyl]methanone]
NC1CCC(C(=O)N2Cc3c(cccc3-c3cnc4[nH]c(-c5ccccc5)cc4c3)C2=O)C1 (stereo not shown) [Compound P-0047, 2-(3-aminocyclopentanecarbonyl)-4-(2-phenyl-1H-pyrrolo[2,3-b]pyridin-5-yl)isoindolin-1-one]
CC1(N)CCN(C(=O)c2cccc(-c3cnc4[nH]c(-c5ccccc5)cc4c3)n2)CC1 [Compound P-0081, (4-amino-4-methyl-1-piperidyl)-[6-(2-phenyl-1H-pyrrolo[2,3-b]pyridin-5-yl)-2-pyridyl]methanone]
CS(=O)(=O)NC1CCN(C(=O)c2cccc(-c3cnc4[nH]c(-c5ccccc5)cc4c3)n2)CC1 [Compound P-0032, N-[1-[6-(2-phenyl-1H-pyrrolo[2,3-b]pyridin-5-yl)pyridine-2-carbonyl]-4-piperidyl]methanesulfonamide]
CON(C)C(=O)c1cccc(-c2cnc3[nH]c(-c4ccccc4)cc3c2)c1 [Compound P-0002, N-methoxy-N-methyl-3-(2-phenyl-1H-pyrrolo[2,3-b]pyridin-5-yl)benzamide]
c1ccc(-c2cc3cc(-c4ccc5[nH]nc(NC6CCNCC6)c5c4)cnc3[nH]2)cc1 [Compound P-0056, 5-(2-phenyl-1H-pyrrolo[2,3-b]pyridin-5-yl)-N-(4-piperidyl)-1H-indazol-3-amine]
O=C(c1cccc(-c2cnc3[nH]c(-c4ccccc4)cc3c2)n1)C1CCNCC1 [Compound P-0043, [6-(2-phenyl-1H-pyrrolo[2,3-b]pyridin-5-yl)-2-pyridyl]-(4-piperidyl)methanone]
NC1CN(C(=O)c2n[nH]c3ccc(-c4cnc5[nH]c(-c6ccccc6)cc5c4)cc23)C1 [Compound P-0029, (3-aminoazetidin-1-yl)-[5-(2-phenyl-1H-pyrrolo[2,3-b]pyridin-5-yl)-1H-indazol-3-yl]methanone]
O=C(c1cccc(-c2cnc3[nH]c(-c4ccccc4)cc3c2)n1)N1CCCC(O)C1 (stereo not shown) [Compound P-0069, (3-hydroxy-1-piperidyl)-[6-(2-phenyl-1H-pyrrolo[2,3-b]pyridin-5-yl)-2-pyridyl]methanone]
O=C(c1cccc(-c2cnc3[nH]c(-c4ccccc4)cc3c2)n1)N1CCC(F)(F)CC1 [Compound P-0089, (4,4-difluoro-1-piperidyl)-[6-(2-phenyl-1H-pyrrolo[2,3-b]pyridin-5-yl)-2-pyridyl]methanone]
N[C@H]1CCN(C(=O)c2cc(-c3cnc4[nH]c(-c5ccccc5)cc4c3)ccn2)C1 [Compound P-0046, [(3S)-3-aminopyrrolidin-1-yl]-[4-(2-phenyl-1H-pyrrolo[2,3-b]pyridin-5-yl)-2-pyridyl]methanone]
CCNC(=O)NC1CCN(C(=O)c2cccc(-c3cnc4[nH]c(-c5ccccc5)cc4c3)n2)CC1 [Compound P-0031, 1-ethyl-3-[1-[6-(2-phenyl-1H-pyrrolo[2,3-b]pyridin-5-yl)pyridine-2-carbonyl]-4-piperidyl]urea]
O=C(NC1CCNC1)c1cccc(-c2cnc3[nH]c(-c4ccccc4)cc3c2)n1 (stereo not shown) [Compound P-0045, 6-(2-phenyl-1H-pyrrolo[2,3-b]pyridin-5-yl)-N-pyrrolidin-3-yl-pyridine-2-carboxamide]
N=C(N)N1CCN(C(=O)c2cccc(-c3cnc4[nH]c(-c5ccccc5)cc4c3)n2)CC1 [Compound P-0057, 4-[6-(2-phenyl-1H-pyrrolo[2,3-b]pyridin-5-yl)pyridine-2-carbonyl]piperazine-1-carboxamidine]
COC(=O)C1(C)CCN(C(=O)c2cccc(-c3cnc4[nH]c(-c5ccccc5)cc4c3)n2)CC1 [Compound P-0092, methyl 4-methyl-1-[6-(2-phenyl-1H-pyrrolo[2,3-b]pyridin-5-yl)pyridine-2-carbonyl]piperidine-4-carboxylate]
CNC1CCN(Cc2cccc(-c3cnc4[nH]c(-c5ccccc5)cc4c3)n2)C1 (stereo not shown) [Compound P-0087, N-methyl-1-[[6-(2-phenyl-1H-pyrrolo[2,3-b]pyridin-5-yl)-2-pyridyl]methyl]pyrrolidin-3-amine]
NC1CCN(C(=O)c2cc(-c3cnc4[nH]c(-c5ccccc5)cc4c3)ccn2)CC1 [Compound P-0038, (4-amino-1-piperidyl)-[4-(2-phenyl-1H-pyrrolo[2,3-b]pyridin-5-yl)-2-pyridyl]methanone]
